Patent US20230414619A1 (priority 2020, published 2023)

How the values were obtained:
[1] = system: PBMCs from a COVID-19 patient; assay type: cell-based, human
[2] = system: SARS-CoV-2; conditions: emetine inhibition of Rps14; pladienolide inhibition of SF3B1; cited from earlier work

Structure (SMILES)	differentially expressed host factors necessary for SARS-CoV-2 pathogenesis (siRNA and CRISPR screens) [1]	differentially expressed host interactors of SARS-CoV-2 viral RNA [1]	differentially expressed host proteins that interact with SARS-CoV-1/2 and MERS encoded proteins [1]	downregulated proteins following treatment [1]	upregulated proteins following treatment [1]	proteins differentially expressed following treatment ([1]; of 5566 proteins quantified, ANOVA P value<0.05, 0-24 h treatment)	differentially expressed proteins whose turnover is G9a dependent in ET macrophages ([1]; out of 292, 78 upregulated, 74 downregulated)	SARS-CoV-2 replication [2]
COc1cc2c(NC3CCN(C(C)C)CC3)nc(N3CCC(F)(F)CC3)nc2cc1OCCCN1CCCC1 [UNC0642]	8	2	129	151	141	292	152	
CC[C@H]1CN2CCc3cc(OC)c(OC)cc3[C@@H]2C[C@@H]1C[C@H]1NCCc2cc(OC)c(OC)cc21 [emetine]								significantly reduced
CC[C@H](O)[C@@H](C)[C@H]1O[C@@H]1C[C@H](C)/C=C/C=C(\C)[C@H]1OC(=O)C[C@H](O)CC[C@@](C)(O)[C@@H](OC(C)=O)/C=C/[C@@H]1C [pladienolide]								significantly reduced
